31 compounds from patent publication US12415830B2, “Steroid compound, and use thereof and preparation method therefor” (Chengdu Kanghong Pharmaceutical Co Ltd, priority 2019, dated 2025) can be followed below.

For the experiment, the target named is T1, GABAA1 (α1β2γ2) receptor (Homo sapiens, UniProt P14867+P47870).
T1 construct: expressed in transfected cells
Put plainly: Patch-clamp electrophysiology on recombinant GABAA1 receptor in HEK293 cells, with 3 μM GABA. Format: cell-based. Conditions: for Emax at 0.1 µM / Emax at 1 µM / Emax: HEK293; for Emax at 0.1 µM: 0.1 μM compound together with 3 μmol GABA; for Emax at 0.1 µM / Emax at 1 µM: read-out: potency: ratio of the peak current on the GABAA1 receptor to the peak current in 100 μmol GABA; for Emax at 1 µM: 1 μM compound together with 3 μmol GABA; for Emax / EC50: together with 3 μmol GABA; for Emax: relative to peak current in 100 μmol GABA. The method, then: The present invention applies the two subunits of the recombinant GABAA receptor: α1β2γ2 and α4β3δ to evaluate the potency of the exemplary compounds in vitro by patch-clamp electrophysiology.
Extracellular fluid: 140 mM NaCl, 5 mM CsCl, 2 mM CaCl2·2H2O, 1 mM MgCl2·6H2O, 5 mM HEPES, 10 mM D-Glucose, pH=7.4 (NaOH).
Intracellular fluid: 130 mM CsCl, 0.1 mM CaCl2·H2O, 2 mM MgCl2·6H2O, 1.1 mM EGTA, 5 mM Na2-ATP, 10 mM HEPES, pH=7.2 (CsOH).
The HEK293 cells line stably expressing GABAA (α1β2γ2) receptors was cultured in Dulbecco's Modified Eagle Medium (DMEM) supplemented with 10% fetal bovine serum, 800 μg/mL G418, 200 μg/mL Hygromycin B and 100 μg/mL Zeocin. Cells were grown in a humidified incubator at 37° C. with 5% carbon dioxide.
Before manual patch clamp test, the cells were detached using 0.25%-Trypsin-EDTA solution. Then 8×10^3 cells were plated onto coverslips, and cultured in a 24-well plate (final medium volume: 500 μL) and tested after 18 hours by patch clamp.
Glass pipette (BF 150-86-10, Sutter Instruments) was pulled using a micropipette puller (P97, Sutter Instruments). The glass pipette was manipulated using a micro-manipulator (MP285, Sutter Instruments) under the microscope (IX71, Olympus). After touching the cell, a slight suction was applied to achieve high seal resistance (GQ). Fast capacitance (in pF) compensation was made after achieving high seal, and the membrane was broken. Cell capacitance (in pF) compensation was made from whole-cell capacitance compensation after the whole cell mode was achieved. No leak subtraction was made.
The test and control solutions flowed into a recording chamber mounted on the stage of an inverted microscope via a gravity-fed solution delivery system. During the experiment, solutions were withdrawn from the recording chamber by vacuum aspiration. Each concentration was tested at multiple times. All tests were performed at room temperature.
Whole cell model recorded GABAA1 receptors current experimental protocol was indicated as follows: When sealing, cell was at a holding potential of −70 mV, with gap-free mode to record the peak current. The cell would be applied with 3 μM GABA to active current. After the test articles application for 30 s, each concentration of test articles was applied with 3 μM GABA followed by 2 minutes washout using extracellular solution. Finally, 100 μM GABA was used as a positive control. The data were collected by EPC-10 amplifier and stored in PatchMaster (HEKA) software.
The following criteria are used to determine whether the data is acceptable: • (1) Electrode resistance <5MΩ • (2) Seal resistance >1GΩ • (3) The start of access resistance <15 MΩ • (4) The end of access resistance <15 MΩ • (5) No obvious spontaneous current decay. • (6) No obvious current leakage when the membrane potential is-70 mv. 56.6 Data Analysis
In the detection of GABAA1, the currents of 3 μM GABA and different concentrations of test compounds were respectively normalized to the current of 100 μM GABA
[formula] and then the activation rate corresponding to each concentration was calculated.
[formula] and then the activation rate corresponding to each concentration was calculated. Means, Standard Deviation and Standard Error were calculated for each test group. EC50 value was calculated using nonlinear regression: Y=Bottom+(Top−Bottom)/(1+10^((Log EC50−X)×HillSlope))
To fit data to the concentration-response, EC50 was the concentration giving a half-maximum effect and Hillslope was the Hill coefficient. Curve-fitting and EC50 calculations were performed using Graphpad5.0 software.
Emax is defined as the ratio of the peak current generated on the GABAA1 receptor to the peak current generated only in 100 μmol of GABA and the ratio is multiplied by 100%. The peak current generated on the GABAA1 receptor is that the exemplary compounds act on the GABAA1 receptor together with 3 μmol GABA.
(In patch-clamp work, channel activity is measured electrically.)

T1 sequence (P14867 28-456): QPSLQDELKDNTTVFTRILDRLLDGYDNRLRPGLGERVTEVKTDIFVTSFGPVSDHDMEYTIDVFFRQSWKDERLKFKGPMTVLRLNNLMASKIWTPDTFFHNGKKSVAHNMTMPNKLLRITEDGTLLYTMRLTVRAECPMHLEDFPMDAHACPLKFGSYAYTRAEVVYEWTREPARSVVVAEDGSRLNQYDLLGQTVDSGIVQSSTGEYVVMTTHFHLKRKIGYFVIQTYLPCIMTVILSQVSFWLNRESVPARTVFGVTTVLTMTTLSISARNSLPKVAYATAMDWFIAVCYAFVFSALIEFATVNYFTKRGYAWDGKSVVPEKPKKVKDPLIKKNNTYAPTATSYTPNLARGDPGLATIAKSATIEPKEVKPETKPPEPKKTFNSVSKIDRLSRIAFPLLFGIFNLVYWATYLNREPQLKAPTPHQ
T1 sequence (P47870 26-512): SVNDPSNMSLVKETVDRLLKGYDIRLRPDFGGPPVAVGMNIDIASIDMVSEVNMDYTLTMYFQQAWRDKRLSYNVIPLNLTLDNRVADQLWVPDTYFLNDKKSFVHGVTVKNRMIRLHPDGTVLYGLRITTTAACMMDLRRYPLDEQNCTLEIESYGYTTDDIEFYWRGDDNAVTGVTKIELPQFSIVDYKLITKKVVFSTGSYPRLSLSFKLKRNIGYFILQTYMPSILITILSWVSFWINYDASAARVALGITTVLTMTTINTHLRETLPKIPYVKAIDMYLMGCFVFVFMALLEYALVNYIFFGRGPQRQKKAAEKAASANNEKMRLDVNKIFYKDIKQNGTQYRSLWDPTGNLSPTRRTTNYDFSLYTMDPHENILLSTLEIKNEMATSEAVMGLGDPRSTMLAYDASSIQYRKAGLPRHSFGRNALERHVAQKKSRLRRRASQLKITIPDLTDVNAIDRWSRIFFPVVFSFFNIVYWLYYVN
T1 sequence (P18507 40-475 partner): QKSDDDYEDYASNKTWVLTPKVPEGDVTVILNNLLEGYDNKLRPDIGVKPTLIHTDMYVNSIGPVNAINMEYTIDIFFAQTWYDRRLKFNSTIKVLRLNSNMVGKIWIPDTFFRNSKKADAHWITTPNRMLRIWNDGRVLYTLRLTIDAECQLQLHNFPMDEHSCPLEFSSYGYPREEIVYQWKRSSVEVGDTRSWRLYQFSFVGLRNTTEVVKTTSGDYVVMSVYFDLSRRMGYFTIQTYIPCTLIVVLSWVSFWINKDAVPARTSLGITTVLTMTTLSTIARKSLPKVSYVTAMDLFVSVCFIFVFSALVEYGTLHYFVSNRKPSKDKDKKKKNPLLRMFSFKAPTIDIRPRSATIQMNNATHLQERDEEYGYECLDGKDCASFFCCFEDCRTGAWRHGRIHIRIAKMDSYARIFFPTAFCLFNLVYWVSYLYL

Turning to `COc1nnc(OCC(=O)[C@H]2CCC[C@H]3[C@@H]4CC[C@H]5C[C@](C)(O)CC[C@]5(C)[C@H]4CC[C@]23C)n1C` [KH030], the Emax at 0.1 µM is 0 to 20% and the Emax at 1 µM was in the range of 0 to 20%.

As to `C[C@]12CC[C@@H](O)C[C@@H]1CC[C@@H]1[C@@H]2CC[C@]2(C)[C@@H](C(=O)CSc3cccs3)CCC[C@@H]12` [KH016], the Emax at 0.1 µM was 0 to 20% and the Emax at 1 µM is 40 to 60%.

In the case of `Cc1nnnn1CC(=O)[C@H]1CCC[C@H]2[C@@H]3CC[C@H]4C[C@H](O)CC[C@]4(C)[C@H]3CC[C@]12C` [KH019], the Emax at 0.1 µM was 0 to 20% and the Emax at 1 µM is 0 to 20%.

On to `CC(=O)[C@H]1CCC[C@H]2[C@@H]3CC[C@H]4C[C@](C)(O)CC[C@]4(C)[C@H]3CC[C@]12C` [KH021], for which the Emax at 0.1 µM was 0 to 20% and the Emax at 1 µM was 0 to 20%.

Take `C[C@@]1(O)CC[C@@]2(C)[C@@H](CC[C@@H]3[C@@H]2CC[C@]2(C)[C@@H](C(=O)Cn4cnnn4)CCC[C@@H]32)C1` [KH023]: the Emax at 0.1 µM was 0 to 20% and the Emax at 1 µM was 0 to 20%.

In the case of `C[C@@]1(O)CC[C@H]2[C@H](CC[C@@H]3[C@@H]2CC[C@]2(C)[C@@H](C(=O)COc4nc[nH]n4)CCC[C@@H]32)C1` [KH051], the Emax at 0.1 µM lay within 0 to 20% and the Emax at 1 µM was in the range of 0 to 20%.

Regarding `C[C@@]1(O)CC[C@@]2(C)[C@@H](CC[C@@H]3[C@@H]2CC[C@]2(C)[C@@H](C(=O)Cn4nccn4)CCC[C@@H]32)C1` [KH043], the Emax at 0.1 µM fell in the range of 0 to 20% and the Emax at 1 µM is 20 to 40%.

Take `C[C@@]1(O)CC[C@@]2(C)[C@@H](CC[C@@H]3[C@@H]2CC[C@]2(C)[C@@H](C(=O)COc4ccon4)CCC[C@@H]32)C1` [KH038]: the Emax at 0.1 µM was 0 to 20% and the Emax at 1 µM was 40 to 60%.

On to `C[C@@]1(O)CC[C@@]2(C)[C@@H](CC[C@@H]3[C@@H]2CC[C@]2(C)[C@@H](C(=O)COc4nc5ccccc5o4)CCC[C@@H]32)C1` [KH028], for which the Emax at 0.1 µM lay in the range of 0 to 20% and the Emax at 1 µM lay in the range of 0 to 20%.

With `C[C@@]1(O)CC[C@@]2(C)[C@@H](CC[C@@H]3[C@@H]2CC[C@]2(C)[C@@H](C(=O)COc4ccc5ccccc5n4)CCC[C@@H]32)C1` [KH033], the Emax at 0.1 µM fell in the range of 0 to 20% and the Emax at 1 µM was in the range of 20 to 40%.

Take `COc1ncnc2ncn(CC(=O)[C@H]3CCC[C@H]4[C@@H]5CC[C@H]6C[C@H](O)CC[C@]6(C)[C@H]5CC[C@]34C)c12` [KH017]: the Emax at 0.1 µM was 0 to 20% and the Emax at 1 µM is 0 to 20%.

With `C[C@@]1(O)CC[C@@]2(C)[C@@H](CC[C@@H]3[C@@H]2CC[C@]2(C)[C@@H](C(=O)CSc4cccs4)CCC[C@@H]32)C1` [KH041], the Emax at 0.1 µM fell in the range of 0 to 20% and the Emax at 1 µM lay in the range of 60 to 80%.

For the compound `C[C@]12CC[C@@H](O)C[C@@H]1CC[C@@H]1[C@@H]2CC[C@]2(C)[C@@H](C(=O)Cn3ccnn3)CCC[C@@H]12` [KH003], the Emax at 0.1 µM was in the range of 20 to 40%, the Emax at 1 µM was 60 to 80%, the Emax amounted to 72.8% and the EC50 (commonly the concentration giving half of the maximal effect) turned out to be 0.478 µM.

With `C[C@]12CC[C@@H](O)C[C@@H]1CC[C@@H]1[C@@H]2CC[C@]2(C)[C@@H](C(=O)Cn3cnnn3)CCC[C@@H]12` [KH005], the Emax at 0.1 µM was in the range of 20 to 40% and the Emax at 1 µM is 60 to 80%.

Turning to `C[C@@]1(O)CC[C@@]2(C)[C@@H](CC[C@@H]3[C@@H]2CC[C@]2(C)[C@@H](C(=O)Cn4cc(C#N)cn4)CCC[C@@H]32)C1` [KH040], the Emax at 0.1 µM was in the range of 0 to 20% and the Emax at 1 µM was 20 to 40%.

For `C[C@]12CC[C@@H](O)C[C@@H]1CC[C@@H]1[C@@H]2CC[C@]2(C)[C@@H](C(=O)CN3CC4(COC4)C3)CCC[C@@H]12` [KH020], the Emax at 0.1 µM is 0 to 20% and the Emax at 1 µM fell in the range of 0 to 20%.

For `C[C@]12CC[C@@H](O)C[C@@H]1CC[C@@H]1[C@@H]2CC[C@]2(C)[C@@H](C(=O)Cn3cc(C#N)cn3)CCC[C@@H]12` [KH002], the Emax at 0.1 µM lay in the range of 0 to 20%, the Emax at 1 µM lay in the range of 60 to 80%, the Emax was determined as 74.6% and the EC50 was found to be 0.464 µM.

Turning to `C[C@@]1(O)CC[C@@]2(C)[C@@H](CC[C@@H]3[C@@H]2CC[C@]2(C)[C@@H](C(=O)C(n4cc(C#N)cn4)n4cc(C#N)cn4)CCC[C@@H]32)C1` [KH027], the Emax at 0.1 µM lay within 0 to 20% and the Emax at 1 µM was 0 to 20%.

In the case of `C[C@@]1(O)CC[C@@]2(C)[C@@H](CC[C@@H]3[C@@H]2CC[C@]2(C)[C@@H](C(=O)CO)CCC[C@@H]32)C1` [KH042], the Emax at 0.1 µM was in the range of 0 to 20% and the Emax at 1 µM lay within 40 to 60%.

In the case of `C[C@]12CC[C@@H](O)C[C@@H]1CC[C@@H]1[C@@H]2CC[C@]2(C)[C@@H](C(=O)CO)CCC[C@@H]12` [KH014], the Emax at 0.1 µM fell in the range of 0 to 20% and the Emax at 1 µM fell in the range of 40 to 60%.

As to `C[C@@]1(O)CC[C@H]2[C@H](CC[C@@H]3[C@@H]2CC[C@]2(C)[C@@H](C(=O)COc4ncnc5cnc(F)cc45)CCC[C@@H]32)C1` [KH048], the Emax at 0.1 µM lay within 0 to 20% and the Emax at 1 µM fell in the range of 0 to 20%.

Turning to `C[C@]12CC[C@@H](O)C[C@@H]1CC[C@@H]1[C@@H]2CC[C@]2(C)[C@@H](C(=O)Cn3cc(Cl)cn3)CCC[C@@H]12` [KH013], the Emax at 0.1 µM was in the range of 0 to 20% and the Emax at 1 µM fell in the range of 0 to 20%.

As for `C[C@]12CC[C@@H](O)C[C@@H]1CC[C@@H]1[C@@H]2CC[C@]2(C)[C@@H](C(=O)Cn3cnc4ncnc(Cl)c43)CCC[C@@H]12` [KH015], the Emax at 0.1 µM fell in the range of 0 to 20% and the Emax at 1 µM lay within 0 to 20%.

For `C[C@@]1(O)CC[C@@]2(C)[C@@H](CC[C@@H]3[C@@H]2CC[C@]2(C)[C@@H](C(=O)COc4ncnc5c(F)cccc45)CCC[C@@H]32)C1` [KH035], the Emax at 0.1 µM lay in the range of 0 to 20% and the Emax at 1 µM is 20 to 40%.

As for `C[C@]12CC[C@@H](O)C[C@@H]1CC[C@@H]1[C@@H]2CC[C@]2(C)[C@@H](C(=O)Cn3cccn3)CCC[C@@H]12` [KH006], the Emax at 0.1 µM was in the range of 20 to 40% and the Emax at 1 µM is 40 to 60%.

On to `C[C@]12CC[C@@H](O)C[C@@H]1CC[C@@H]1[C@@H]2CC[C@]2(C)[C@@H](C(=O)Cn3cnc4cncnc43)CCC[C@@H]12` [KH012], for which the Emax at 0.1 µM is 0 to 20% and the Emax at 1 µM lay in the range of 60 to 80%.

With `C[C@]12CC[C@@H](O)C[C@@H]1CC[C@@H]1[C@@H]2CC[C@]2(C)[C@@H](C(=O)Cn3ncc4ccccc43)CCC[C@@H]12` [KH011], the Emax at 0.1 µM was 20 to 40% and the Emax at 1 µM is 60 to 80%.

On to `C[C@@]1(O)CC[C@@]2(C)[C@@H](CC[C@@H]3[C@@H]2CC[C@]2(C)[C@@H](C(=O)Cn4ccc(C#N)n4)CCC[C@@H]32)C1` [KH024], for which the Emax at 0.1 µM fell in the range of 0 to 20% and the Emax at 1 µM is 40 to 60%.

Take `C[C@]12CC[C@@H](O)C[C@@H]1CC[C@@H]1[C@@H]2CC[C@]2(C)[C@@H](C(=O)Cn3ccc4ccccc43)CCC[C@@H]12` [KH009]: the Emax at 0.1 µM fell in the range of 20 to 40% and the Emax at 1 µM is over 80%.

With `Cn1nnnc1SCC(=O)[C@H]1CCC[C@H]2[C@@H]3CC[C@H]4C[C@](C)(O)CC[C@]4(C)[C@H]3CC[C@]12C` [KH031], the Emax at 0.1 µM was in the range of 0 to 20% and the Emax at 1 µM lay within 40 to 60%.

In the case of `C[C@]12CC[C@@H](O)C[C@@H]1CC[C@@H]1[C@@H]2CC[C@]2(C)[C@@H](C(=O)Cn3ccc(C#N)n3)CCC[C@@H]12` [KH008], the Emax at 0.1 µM was 20 to 40% and the Emax at 1 µM was over 80%.
